Laboratory results: US20090156517A1, “STABLE PHARMACEUTICAL COMPOSITIONS OF AMINOGLYCOSIDE ANTIBIOTICS, ION-CHELATING AGENTS, AND BUFFERS” (priority 2006, published 2009)

Test: Amounts of antibiotic components in the solution over time (reverse-phase LC/UV for β-lactams and β-lactamase inhibitors, HPLC/evaporation-light-scattering for aminoglycosides)
Assay type: physicochemical
Protocol: The amounts of β-lactam antibiotics and β-lactamase inhibitor were determined using C18 reverse-phase LC and UV-VIS detector (Tianjin […] Co., Ltd., analysis method No. HM-K-03). The content of aminoglycoside antibiotics was measured using reverse-phase HPLC and evaporation-light-scattering detector (Tianjin […] Co., Ltd., analysis method No. HM-K-08). […] The relative amount of each antibiotic component in the composition at each time point was expressed as peak area ratio with respect to the corresponding peak area of an external standard.

[1] = Example 6 solution (cefoperazone sodium, sulbactam sodium, etimicin sulfate, disodium EDTA, sodium citrate pH 6.5), room temperature, 0 h
[2] = Example 6 solution (cefoperazone sodium, sulbactam sodium, etimicin sulfate, disodium EDTA, sodium citrate pH 6.5), room temperature, 1 h
[3] = Example 6 solution (cefoperazone sodium, sulbactam sodium, etimicin sulfate, disodium EDTA, sodium citrate pH 6.5), room temperature, 2 h
[4] = Example 6 solution (cefoperazone sodium, sulbactam sodium, etimicin sulfate, disodium EDTA, sodium citrate pH 6.5), room temperature, 4 h
[5] = Example 7 solution (ceftriaxone sodium, sulbactam sodium, etimicin sulfate, disodium EDTA, sodium citrate pH 6.5), room temperature, 0 h
[6] = Example 7 solution (ceftriaxone sodium, sulbactam sodium, etimicin sulfate, disodium EDTA, sodium citrate pH 6.5), room temperature, 1 h
[7] = Example 7 solution (ceftriaxone sodium, sulbactam sodium, etimicin sulfate, disodium EDTA, sodium citrate pH 6.5), room temperature, 2 h
[8] = Example 7 solution (ceftriaxone sodium, sulbactam sodium, etimicin sulfate, disodium EDTA, sodium citrate pH 6.5), room temperature, 4 h
[9] = Example 7 solution (ceftriaxone sodium, sulbactam sodium, etimicin sulfate, disodium EDTA, sodium citrate pH 6.5), room temperature, 6 h
[10] = Example 7 solution (ceftriaxone sodium, sulbactam sodium, etimicin sulfate, disodium EDTA, sodium citrate pH 6.5), room temperature, 8 h
[11] = Example 11: solution of Example 10 freeze-dried, stored 7 days at 0° C., redissolved, pH 6.0, etimicin sulfate and disodium EDTA added, 0 h
[12] = Example 11: solution of Example 10 freeze-dried, stored 7 days at 0° C., redissolved, pH 6.0, etimicin sulfate and disodium EDTA added, 1 h
[13] = Example 11: solution of Example 10 freeze-dried, stored 7 days at 0° C., redissolved, pH 6.0, etimicin sulfate and disodium EDTA added, 2 h
[14] = Example 11: solution of Example 10 freeze-dried, stored 7 days at 0° C., redissolved, pH 6.0, etimicin sulfate and disodium EDTA added, 4 h
[15] = Example 11: solution of Example 10 freeze-dried, stored 7 days at 0° C., redissolved, pH 6.0, etimicin sulfate and disodium EDTA added, 6 h
[16] = Example 11: solution of Example 10 freeze-dried, stored 7 days at 0° C., redissolved, pH 6.0, etimicin sulfate and disodium EDTA added, 8 h
[17] = Example 10: piperacillin sodium/sulbactam sodium solution cryopreserved 7 days, thawed, pH 6.0, etimicin sulfate added, no EDTA, 0 h
[18] = Example 10: piperacillin sodium/sulbactam sodium solution cryopreserved 7 days, thawed, pH 6.0, etimicin sulfate added, no EDTA, 1 h
[19] = Example 10: piperacillin sodium/sulbactam sodium solution cryopreserved 7 days, thawed, pH 6.0, etimicin sulfate added, no EDTA, 2 h
[20] = Example 10: piperacillin sodium/sulbactam sodium solution cryopreserved 7 days, thawed, pH 6.0, etimicin sulfate added, no EDTA, 4 h
[21] = Example 10: piperacillin sodium/sulbactam sodium solution cryopreserved 7 days, thawed, pH 6.0, etimicin sulfate added, no EDTA, 6 h
[22] = Example 10: piperacillin sodium/sulbactam sodium solution cryopreserved 7 days, thawed, pH 6.0, etimicin sulfate added, no EDTA, 8 h

Compound	Amount of component, percentage of amount at initial time [1] [%]	Amount of component, percentage of amount at initial time [2] [%]	Amount of component, percentage of amount at initial time [3] [%]	Amount of component, percentage of amount at initial time [4] [%]	Amount of component, percentage of amount at initial time [5] [%]	Amount of component, percentage of amount at initial time [6] [%]	Amount of component, percentage of amount at initial time [7] [%]	Amount of component, percentage of amount at initial time [8] [%]	Amount of component, percentage of amount at initial time [9] [%]	Amount of component, percentage of amount at initial time [10] [%]	Amount of component, percentage of amount at initial time [11] [%]	Amount of component, percentage of amount at initial time [12] [%]	Amount of component, percentage of amount at initial time [13] [%]	Amount of component, percentage of amount at initial time [14] [%]	Amount of component, percentage of amount at initial time [15] [%]	Amount of component, percentage of amount at initial time [16] [%]	Amount of component, percentage of amount at initial time [17] [%]	Amount of component, percentage of amount at initial time [18] [%]	Amount of component, percentage of amount at initial time [19] [%]	Amount of component, percentage of amount at initial time [20] [%]	other results
CCN[C@@H]1C[C@H](N)[C@@H](O[C@H]2O[C@H](CN)CC[C@H]2N)[C@H](O)[C@H]1O[C@H]1OC[C@](C)(O)[C@H](NC)[C@H]1O [Etimicin, etimicin]	108.9	100.2	100.5	100.4	100.7	101.0	101.0	101.0	100.8	100.7	94.81	99.66	100.9	101.5	96.97	94.44					Amount of component, percentage of amount at initial time (Example 6 solution (cefoperazone sodium, sulbactam sodium, etimicin sulfate, disodium EDTA, sodium citrate pH 6.5), room temperature, 6 h): 100.4%; Amount of component, percentage of amount at initial time (Example 6 solution (cefoperazone sodium, sulbactam sodium, etimicin sulfate, disodium EDTA, sodium citrate pH 6.5), room temperature, 8 h): 97.50%; Amount of component, percentage of amount at initial time (Example 14: cefoperazone sodium/tazobactam sodium solution pH 6.75, etimicin sulfate added, 0 h): 100%; Amount of component, percentage of amount at initial time (Example 14: cefoperazone sodium/tazobactam sodium solution pH 6.75, etimicin sulfate added, 1 h): 98.8%; Amount of component, percentage of amount at initial time (Example 14: cefoperazone sodium/tazobactam sodium solution pH 6.75, etimicin sulfate added, 2 h): 97.5%; Amount of component, percentage of amount at initial time (Example 14: cefoperazone sodium/tazobactam sodium solution pH 6.75, etimicin sulfate added, 4 h): 98.4%; Amount of component, percentage of amount at initial time (Example 14: cefoperazone sodium/tazobactam sodium solution pH 6.75, etimicin sulfate added, 6 h): 95.6%; Amount of component, percentage of amount at initial time (Example 14: cefoperazone sodium/tazobactam sodium solution pH 6.75, etimicin sulfate added, 8 h): 92.8%
CC1(C)S[C@@H]2[C@H](NC(=O)[C@H](NC(=O)N3CCN(S(C)(=O)=O)C3=O)c3ccccc3)C(=O)N2[C@H]1C(=O)O [Mezlocillin sodium, mezlocillin sodium]																					Amount of component, percentage of amount at initial time (Example 9: freeze-dried amikacin sulfate/disodium EDTA/citrate pH 6.5 powder stored 7 days at 0° C., redissolved, mezlocillin sodium added, 0 h): 94.68%; Amount of component, percentage of amount at initial time (Example 9: freeze-dried amikacin sulfate/disodium EDTA/citrate pH 6.5 powder stored 7 days at 0° C., redissolved, mezlocillin sodium added, 1 h): 95.90%; Amount of component, percentage of amount at initial time (Example 9: freeze-dried amikacin sulfate/disodium EDTA/citrate pH 6.5 powder stored 7 days at 0° C., redissolved, mezlocillin sodium added, 2 h): 71.70%; Amount of component, percentage of amount at initial time (Example 9: freeze-dried amikacin sulfate/disodium EDTA/citrate pH 6.5 powder stored 7 days at 0° C., redissolved, mezlocillin sodium added, 4 h): 91.78%; Amount of component, percentage of amount at initial time (Example 9: freeze-dried amikacin sulfate/disodium EDTA/citrate pH 6.5 powder stored 7 days at 0° C., redissolved, mezlocillin sodium added, 6 h): 93.08%; Amount of component, percentage of amount at initial time (Example 9: freeze-dried amikacin sulfate/disodium EDTA/citrate pH 6.5 powder stored 7 days at 0° C., redissolved, mezlocillin sodium added, 8 h): 97.69%
CCN1CCN(C(=O)N[C@@H](C(=O)N[C@@H]2C(=O)N3[C@@H]2SC(C)(C)[C@@H]3C(=O)O)c2ccccc2)C(=O)C1=O [Piperacillin, piperacillin]											101.8	101.3	101.8	101.2	98.3	95.1	101.8	101.3	101.8	101.2	Amount of component, percentage of amount at initial time [21]: 98.3%; Amount of component, percentage of amount at initial time [22]: 95.1%; Amount of component, percentage of amount at initial time (Example 12: thawed solution from Example 10, pH 6.0, amikacin sulfate added, no EDTA, 0 h): 101.8%; Amount of component, percentage of amount at initial time (Example 12: thawed solution from Example 10, pH 6.0, amikacin sulfate added, no EDTA, 1 h): 101.3%; Amount of component, percentage of amount at initial time (Example 12: thawed solution from Example 10, pH 6.0, amikacin sulfate added, no EDTA, 2 h): 101.8%; Amount of component, percentage of amount at initial time (Example 12: thawed solution from Example 10, pH 6.0, amikacin sulfate added, no EDTA, 4 h): 101.2%; Amount of component, percentage of amount at initial time (Example 12: thawed solution from Example 10, pH 6.0, amikacin sulfate added, no EDTA, 6 h): 98.3%; Amount of component, percentage of amount at initial time (Example 12: thawed solution from Example 10, pH 6.0, amikacin sulfate added, no EDTA, 8 h): 95.1%
CC1(C)[C@H](C(=O)O)N2C(=O)C[C@H]2S1(=O)=O [Sulbactam sodium, sulbactam sodium]	99.62	100.4	100.2	100.2	96.84	94.43	93.35	93.23	92.13	93.38							94.1	97.4	96.4	97.7	Amount of component, percentage of amount at initial time (Example 4 solution (cefoperazone sodium, sulbactam sodium, gentamicin, sodium citrate pH 6.75, no EDTA), room temperature, 0 h): 101.4%; Amount of component, percentage of amount at initial time (Example 4 solution (cefoperazone sodium, sulbactam sodium, gentamicin, sodium citrate pH 6.75, no EDTA), room temperature, 1 h): 101.4%; Amount of component, percentage of amount at initial time (Example 4 solution (cefoperazone sodium, sulbactam sodium, gentamicin, sodium citrate pH 6.75, no EDTA), room temperature, 2 h): 101.5%; Amount of component, percentage of amount at initial time (Example 4 solution (cefoperazone sodium, sulbactam sodium, gentamicin, sodium citrate pH 6.75, no EDTA), room temperature, 4 h): 109.7%; Amount of component, percentage of amount at initial time (Example 4 solution (cefoperazone sodium, sulbactam sodium, gentamicin, sodium citrate pH 6.75, no EDTA), room temperature, 6 h): 103.2%; Amount of component, percentage of amount at initial time (Example 5 solution (cefoperazone sodium, sulbactam sodium, gentamicin, disodium EDTA, sodium citrate pH 6.75), room temperature, 0 h): 101.4%; Amount of component, percentage of amount at initial time (Example 5 solution (cefoperazone sodium, sulbactam sodium, gentamicin, disodium EDTA, sodium citrate pH 6.75), room temperature, 1 h): 101.4%; Amount of component, percentage of amount at initial time (Example 5 solution (cefoperazone sodium, sulbactam sodium, gentamicin, disodium EDTA, sodium citrate pH 6.75), room temperature, 2 h): 101.5%; Amount of component, percentage of amount at initial time (Example 5 solution (cefoperazone sodium, sulbactam sodium, gentamicin, disodium EDTA, sodium citrate pH 6.75), room temperature, 4 h): 109.7%; Amount of component, percentage of amount at initial time (Example 5 solution (cefoperazone sodium, sulbactam sodium, gentamicin, disodium EDTA, sodium citrate pH 6.75), room temperature, 6 h): 103.2%; Amount of component, percentage of amount at initial time [21]: 96.9%; Amount of component, percentage of amount at initial time [22]: 97.1%
